Entries after “also recorded” stand apart in the source; their conditions may differ.
Assays:
[1] = system: plasma branched chain amino acids (BCAA) and branched chain ketoacids (BCKA); assay: Clinical protocol: plasma BCAA and BCKA before and after sodium phenylbutyrate; format: in vivo, human; details: day 3 vs baseline, listed as sodium phenylbutyrate
Source text: FIG. 1 is a graph representing levels of branched chain amino acids (BCAAs) in control subjects (N=3) at baseline and then after treatment with sodium phenylbutyrate (PBA). Abbreviations: Ile=Isoleucine; Leu=Leucine; Val=Valine. *: p<0.05. Values are average of three time points after two days of treatment. Study subjects received PBA at the dose of 10 gram/m^2/day divided in four equal doses every six hours for three days. The subjects received a constant protein intake of 0.6 grams/kg/day as a combination of BCAA-free formula and whole protein. Measurements were performed on day three at three different time points separated by 30 minutes in the fed state. Note that y-axis represents concentrations comparing baseline to three days of treatment.
FIG. 2 is a graph representing levels of branched chain ketoacids (BCKAs) in control subjects (N=3) at baseline and then after treatment with sodium phenylbutyrate. Abbreviations: KMV=α-keto-β-methylvalerate; KIC=α-ketoisocaproate; KIV=α-ketoisovalerate. *: p<0.05. Values are average of three time points after two days of treatment. Subjects were all on the same steady state protein intake for three days at testing. Study subjects received PBA at the dose of 10 gram/m^2/day divided in four equal doses every six hours for three days. The subjects received a constant protein intake of 0.6 grams/kg/day as a combination of BCAA-free formula and whole protein. Measurements were performed on day three at three different time points separated by 30 minutes in the fed state. Note that y-axis represents concentrations comparing baseline to three days of treatment.
FIG. 3 is a graph representing levels of branched chain amino acids (BCAAs) in MSUD patients (N=5) at baseline and then after treatment with sodium phenylbutyrate. Values are average of three time points after two days of treatment. Patients were all on steady state protein intake for three days at testing. Study subjects received PBA at the dose of 10 gram/m^2/day divided in four equal doses every six hours for three days. The subjects received a constant protein intake of 0.6 grams/kg/day as a combination of BCAA-free formula and whole protein. Measurements were performed on day three at three different time points separated by 30 minutes in the fed state. Abbreviations: Ile=Isoleucine; Leu=Leucine; Val=Valine. *: p<0.05. Note that y-axis represents concentrations comparing baseline to three days of treatment.
FIG. 4 is a graph representing levels of branched chain ketoacids (BCKAs) in MSUD patients (N=5) at baseline and then after treatment with sodium phenylbutyrate. Values are average of three time points after two days of treatment. Patients were all on steady state protein intake for three days at testing. […]

[2] = system: BCKDC; assay: Leucine oxidation in lymphoblast cells in presence of CIC; format: cell-based, human; details: patient 3 lymphoblasts, 1 mM phenylbutyrate 48 h, 1 mM CIC in the assay
Description: (§1) FIGS. 8A-8C. FIGS. 8A and 8B show leucine oxidation in presence of CIC in lymphoblast cells from control subjects (C-660, C-661) and MSUD patients (P-1, -2, -3, -4, -5) untreated or treated with 1 mM phenylbutyrate for 48 h. Leucine oxidation was measured by using radioactive assay as described in Materials and Methods and is expressed in pmol CO2 released/min/mg protein. CIC was added to all reactions in 1 mM concentration. Values are means±SD (n=3), * p≥0.05, **p≥0.01. […] Images are representative of two independent experiments.
(§2) Because phenylbutyrate affects E1α phosphorylation state in vivo (see FIG. 5), leucine oxidation was measured in the same cell lines as in FIG. […] with CIC in the assay. […] Changes in BCAT isoenzyme activity also impacts BCKA production, in specific cases. All patient cell lines accumulated more KIC than observed in control cell lines.

[3] = biological target: T1, BCKDC (Homo sapiens, UniProt P12694+P21953); assay: as above; format: cell-based; design: Transformed lymphoblast cell lines were available from all 5 MSUD patients and from 2 controls to measure BCKDC activity; endogenous in cells; details: control lymphoblasts, 1 mM phenylbutyrate 48 h, 1 mM CIC in the assay
T1 sequence (P12694 46-445): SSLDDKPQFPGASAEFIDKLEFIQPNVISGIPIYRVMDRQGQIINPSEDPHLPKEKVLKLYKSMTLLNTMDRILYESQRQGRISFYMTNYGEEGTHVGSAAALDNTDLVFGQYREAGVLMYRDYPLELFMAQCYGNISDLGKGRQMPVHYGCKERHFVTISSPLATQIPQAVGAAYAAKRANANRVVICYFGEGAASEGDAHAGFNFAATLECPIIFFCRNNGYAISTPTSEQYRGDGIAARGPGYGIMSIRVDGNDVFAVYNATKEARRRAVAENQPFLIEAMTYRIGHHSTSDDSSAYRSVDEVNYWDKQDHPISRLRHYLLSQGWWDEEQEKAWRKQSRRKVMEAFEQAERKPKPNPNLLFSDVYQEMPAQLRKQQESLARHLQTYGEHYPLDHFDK
T1 sequence (P21953 51-392): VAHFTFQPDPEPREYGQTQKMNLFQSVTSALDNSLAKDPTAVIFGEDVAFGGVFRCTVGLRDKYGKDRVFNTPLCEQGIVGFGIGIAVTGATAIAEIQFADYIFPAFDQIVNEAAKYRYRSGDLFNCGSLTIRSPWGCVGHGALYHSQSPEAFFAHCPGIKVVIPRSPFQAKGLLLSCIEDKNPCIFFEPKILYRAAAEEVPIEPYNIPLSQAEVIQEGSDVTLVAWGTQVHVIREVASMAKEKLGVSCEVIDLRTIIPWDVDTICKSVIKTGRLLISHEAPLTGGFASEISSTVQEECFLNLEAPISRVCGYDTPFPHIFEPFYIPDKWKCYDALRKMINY
Description: as §1, §2

[4] = system: E1α-phospho/E1α, E2, BCATm, BCATc; assay: Western blotting of BCKD complex and BCAT isozymes in lymphoblast cells; format: cell-based, human
[5] = MSUD patients (N=5), three of five responders, 10 gram/m^2/day
[6] = healthy control subjects (N=3), 10 gram/m^2/day in four doses

Structure (SMILES): O=C([O-])CCCc1ccccc1.[Na+] [phenylbutyrate, sodium 4-phenylbutyrate]
- plasma BCAA levels [1, 5]: reduced; also recorded: decreased their BCAAs
- plasma BCKA levels [1, 5]: significantly decreased; also recorded: decreased their BCKAs
- plasma BCAA levels (isoleucine, leucine, valine) [1, 6]: reduced; also recorded: significantly decreased levels
- plasma BCKA levels (KMV, KIC, KIV) [1, 6]: reduced; also recorded: decreased their BCKAs
- leucine oxidation rates [2]: nearly doubled
- leucine oxidation [3]: increased
- levels of cytosolic isozyme BCATc ([4]; all of the lymphoblasts but patient 5, 1 mM 48 h): appeared to increase
- levels of the mitochondrial isozyme BCATm ([4]; both controls and patients 1 through 3, 1 mM 48 h): slightly elevated
- phosphorylation state of E1α ([4]; lymphoblasts from controls and patients 1, 2 and 3, 1 mM phenylbutyrate 48 h): Neither the controls nor patients 1, 2 and 3 responded
- phosphorylation state of E1α ([4]; lymphoblasts from patients 4 and 5, 1 mM phenylbutyrate 48 h, no apparent change in E1 levels): decrease
